# Measured values as given in US10206397B2, “N-acylimino heterocyclic compounds” (BASF SE, priority 2013, dated 2019).
# Tests used:
# Type in all cases: in vivo
# [1] = system: green peach aphid (Myzus persicae); experiment: Green peach aphid systemic test, artificial diet in 96-well microtiter plates; conditions: 72 h, read-out: mortality in comparison with untreated controls
# Text: B.1 Green Peach Aphid (Myzus persicae)
# For evaluating control of green peach aphid (Myzus persicae) through systemic means, the test unit consists of 96-well-microtiter plates containing liquid artificial diet under an artificial membrane.
# The compounds are formulated using a solution containing 75% v/v water and 25% v/v DMSO. Different concentrations of formulated compounds are pipetted into the aphid diet, using a custom built pipetter, at two replications.
# After application, 5-8 adult aphids are placed on the artificial membrane inside the microtiter plate wells. The aphids are then allowed to suck on the treated aphid diet and incubated at about 23+1° C. and about 50+5% relative humidity for 3 days. Aphid mortality and fecundity is then visually assessed.
# [2] = system: vetch aphid (Megoura viciae); experiment: Vetch aphid contact/systemic test on broad bean leaf disks; conditions: foliar, 120 h, read-out: mortality in comparison with untreated controls
# Method: B.2 Vetch Aphid (Megoura viciae)
# For evaluating control of vetch aphid (Megoura viciae) through contact or systemic means the test unit consisted of 24-well-microtiter plates containing broad bean leaf disks.
# The compounds were formulated using a solution containing 75% v/v water and 25% v/v DMSO. Different concentrations of formulated compounds were sprayed onto the leaf disks at 2.5 μl, using a custom built micro atomizer, at two replications.
# After application, the leaf disks were air-dried and 5-8 adult aphids were placed on the leaf disks inside the microtiter plate wells. The aphids were then allowed to suck on the treated leaf disks and were incubated at about 23±1° C. and about 50±5% relative humidity for 5 days. Aphid mortality and fecundity was then visually assessed.
# [3] = system: Cotton aphid (Aphis gossypii); experiment: Cotton aphid spray test on potted plants; conditions: 72 h, read-out: mortality in comparison with untreated controls
# Method: B.3 Cotton aphid (Aphis gossypii)
# (§1) The active compound is dissolved at the desired concentration in a mixture of 1:1 (vol:vol) distilled water:acetone. Surfactant (Alkamuls® EL 620) is added at a rate of 0.1% (vol/vol). The test solution is prepared at the day of use.
# (§2) Potted cowpea plants were colonized with approximately 50-100 aphids of various stages by manually transferring a leaf tissue cut from infested plant 24 hours before application. Plants were sprayed after the pest population has been recorded. Treated plants are maintained on light carts at about 28° C. Percent mortality was assessed after 72 hours.
# [4] = system: Cowpea Aphid (Aphis craccivora); experiment: Cowpea aphid spray test on potted cowpea plants; conditions: 72 h, read-out: mortality in comparison with untreated controls
# Method: B.4 Cowpea Aphid (Aphis craccivora)
# as §1
# as §2, with “are” for “were”, “is” for “was”
# [5] = system: Silverleaf Whitefly (bemisia argentifolii); experiment: Silverleaf whitefly spray test on cotton plants; conditions: 72 h, read-out: mortality in comparison with untreated controls
# Text: B.5 Silverleaf Whitefly (bemisia argentifolii)
# The active compounds are formulated in cyclohexanone as a 10,000 ppm solution supplied in tubes. The tubes are inserted into an automated electrostatic sprayer equipped with an atomizing nozzle and they serve as stock solutions for which lower dilutions are made in 50% acetone:50% water (v/v). A nonionic surfactant (Kinetic®) is included in the solution at a volume of 0.01% (v/v).
# Cotton plants at the cotyledon stage (one plant per pot) are sprayed by an automated electrostatic plant sprayer equipped with an atomizing spray nozzle. The plants are dried in the sprayer fume hood and then removed from the sprayer. Each pot is placed into a plastic cup and about 10 to 12 whitefly adults (approximately 3-5 days old) are introduced. The insects are collected using an aspirator and a nontoxic Tygon® tubing connected to a barrier pipette tip. The tip, containing the collected insects, is then gently inserted into the soil containing the treated plant, allowing insects to crawl out of the tip to reach the foliage for feeding. Cups are covered with a reusable screened lid. […] Mortality is assessed 3 days after treatment, compared to untreated control plants.
# [6] = system: Orchid Thrips (dichromothrips corbetti); experiment: Orchid thrips floral-immersion test; conditions: 72 h, read-out: mortality in comparison with untreated controls
# Method: B.6 Orchid Thrips (dichromothrips corbetti)
# Dichromothrips corbetti adults used for bioassay are obtained from a colony maintained continuously under laboratory conditions. For testing purposes, the test compound is diluted in a 1:1 mixture of acetone:water (vol:vol), plus 0.01% vol/vol Alkamuls® EL 620 surfactant.
# Thrips potency of each compound is evaluated by using a floral-immersion technique. Plastic petri dishes are used as test arenas. All petals of individual, intact orchid flowers are dipped into treatment solution and allowed to dry. Treated flowers are placed into individual petri dishes along with about 20 adult thrips. The petri dishes are then covered with lids. All test arenas are held under continuous light and a temperature of about 28° C. for duration of the assay. After 3 days, the numbers of live thrips are counted on each flower, and along inner walls of each petri dish. The percent mortality is recorded 72 hours after treatment.
# [7] = system: Rice Green Leafhopper (Nephotettix virescens); experiment: Rice green leafhopper spray test on rice seedlings; conditions: 72 h, read-out: mortality in comparison with untreated controls
# Method: B.7 Rice Green Leafhopper (Nephotettix virescens)
# (§3) Rice seedlings are cleaned and washed 24 hours before spraying. The active compounds are formulated in 50:50 acetone:water (vol:vol), and 0.1% vol/vol surfactant (EL 620) is added. Potted rice seedlings are sprayed with 5 ml test solution, air dried, placed in cages and inoculated with 10 adults. Treated rice plants are kept at about 28-29° C. and relative humidity of about 50-60%. Percent mortality is recorded after 72 hours.
# [8] = system: Rice Brown Plant Hopper (Nilaparvata lugens); experiment: Rice brown plant hopper spray test on rice seedlings; conditions: 72 h, read-out: mortality in comparison with untreated controls
# Method: B.8 Rice Brown Plant Hopper (Nilaparvata lugens)
# as §3, with “compounds is” for “compounds are”, “acetone:water (vol:vol)” for “acetone:water (vol:vol),”, “620) was” for “620) is”
# [9] = system: Green Soldier Stink Bug (Nezara viridula); experiment: Green soldier stink bug spray test on soybean pods; conditions: 120 h, sprayed soybean pods, 3rd instar, 5 days, read-out: mortality in comparison with untreated controls
# Method: B.10 Green Soldier Stink Bug (Nezara viridula)
# The active compound is dissolved at the desired concentration in a mixture of 1:1 (vol:vol) distilled water:aceteone. Surfactant (Kinetic HV) is added at a rate of 0.01% (vol/vol). The test solution is prepared at the day of use.
# Soybean pods were placed in microwavable plastic cups lined with moist filter paper and inoculated with ten 3rd instar N. viridula. Using a hand atomizer, approximately 2 ml solution is sprayed into each cup. Treated cups were kept at about 28-29° C. and relative humidity of about 50-60%. Percent mortality was recorded after 5 days.
# [10] = system: Diamond Back Moth (Plutella xylostella); experiment: Diamond back moth cabbage leaf dip test; conditions: foliar, 72 h, read-out: mortality in comparison with untreated controls
# Method: B.9 Diamond Back Moth (Plutella xylostella)
# The active compound is dissolved at the desired concentration in a mixture of 1:1 (vol:vol) distilled water:aceteone. Surfactant (Alkamuls® EL 620) is added at a rate of 0.1% (vol/vol). The test solution is prepared at the day of use.
# Leaves of cabbage were dipped in test solution and air-dried. Treated leaves were placed in petri dish eslined with moist filter paper and inoculated with ten 3rd instar larvae. Mortality was recorded 72 hours after treatment. Feeding damages were also recorded using a scale of 0-100%.
Compound,mortality at 2500 ppm [1] [%],mortality at 2500 ppm [2] [%],mortality at 500 ppm [3] [%],mortality at 500 ppm [4] [%],mortality at 500 ppm [5] [%],mortality at 500 ppm [6] [%],mortality at 500 ppm [7] [%],mortality at 500 ppm [8] [%],mortality at 500 ppm [9] [%],mortality at 500 ppm [10] [%]
N#CCC(=O)/N=c1\ccccn1Cc1ccc(Cl)nc1 [I.A-1],≥ 75,≥ 75,> 75,≥ 75,≥ 75,≥ 75,≥ 75,≥ 75,> 75,
N#CC1(C(=O)/N=c2\ccccn2Cc2ccc(Cl)nc2)CC1 [I.B-1],≥ 75,≥ 75,,≥ 75,,≥ 75,≥ 75,≥ 75,,> 75
